Laboratory results taken from patent US5858692A, “Polychlorinated biphenyls (PCB) immunoassay method, its components and a kit for use in performing the same” (ENSYS, Inc., priority 1995, dated 1999).

System: monoclonal F40-11G6 antibody (anti-PCB monoclonal antibody)
Assay: 1 ppm PCB immunoassay (competitive ELISA), cross-reactivity of compounds found at PCB sites or of similar structure
Format: binding, Balb/c mice
Details: for PERCENT CROSS-REACTIVITY: calculated percent cross-reactivity in the 1 ppm PCB immunoassay; for CONCENTRATION GIVING A POSITIVE RESULT; SOIL EQUIVALENT / CON[…] A POSITIVE RESULT; SOIL EQUIVALENT: positive compared to the kit standard (AROCLOR 1248, 0.7 ppm) in the 1 ppm PCB immunoassay
Procedure: The immunoassay of the present invention is performed according to the following procedure. Monoclonal anti-PCB antibody is immobilized in an assay vessel, or other solid support, preferably to the bottom of a polystyrene tube, at a concentration, of from 0.005 to 20 μg/tube, preferably 0.1 to 0.4 μg/tube. The concentration and affinity of the antibody for the sample molecules and reporter reagent molecules directly influences the overall sensitivity of the final method.
Antibody coated tubes were prepared by passively coating polystyrene (12×75 mm, NUNC) tubes with the monoclonal F40-11G6 antibody diluted in PBS and incubating overnight.
10 g of a soil sample were placed in an extraction vial containing 20 mL of methanol and 5 steel pellets (6mm) and the vial and its contents shaken for 1 minute to disperse the soil particles and extract the PCB. The sample was then filtered to clarify the sample using a filter of glass fiber and 0.45μ Teflon. 45 uL of the clarified filtrate sample was mixed with 955 μl of 10 mM PBS (pH=7.4) and the resulting mixture added to lyophilized enzyme conjugate reagent (0.3 μg) and mixed. At the same time, 2×45 uL of the AROCLOR 1248 standard are similarly treated. The sample and the two standards were then poured into three identical antibody coated tubes, respectively, and the resulting solution mixed. The resulting solution was incubated for 10 minutes at ambient temperature and then washed 4× with a wash buffer (detergent-saline solution). 250 uL of tetramethylbenzidene solution (KP Laboratories, Cat. No. 50-76-02) was added along with 250 uL of hydrogen peroxide solution (KPL, Cat. No. 50-65-02) and the resultant solution mixed. After incubating for 2.5 minutes the color development reaction was stopped with 250 uL of stop solution (1M sulfuric acid).
The optical density (OD) of the test sample was compared to the OD of the AROCLOR 1248 standard (0.7 ppm) which was tested simultaneously with the sample. If the sample OD is less than the standard OD, the sample contains greater than 1 ppm PCBs. If the sample OD is greater than the standard OD, the sample contains less than 1 ppm PCBs. Other concentration ranges can be assessed by diluting the test samples with suitable diluents, as long as they are non-reactive with the components of the assay.
These compounds were tested for their reactivity with the present 1 ppm PCB immunoassay. […] Overall, the compounds were each less than 1% cross-reactive, with one exception at 2%, indicating high-specificity for PCBs in the present method.

Row | Compound | PERCENT CROSS-REACTIVITY [%] | CONCENTRATION GIVING A POSITIVE RESULT; SOIL EQUIVALENT | CON[…] A POSITIVE RESULT; SOIL EQUIVALENT
1 | Clc1c2ccccc2c(Cl)c2ccccc12 [9,10-DICHLOROANTHRACENE, 9,10-DICHLORO-ANTHRACENE] | < 0.01 | > 10,000 PPM | –
2 | O=S(=O)(Oc1ccc(Cl)cc1Cl)c1ccccc1 [2,4-DICHLOROPHENYL BENZENESULFONATE] | < 1 | 100-1,000 PPM | –
3 | Oc1c(Cl)c(Cl)c(Cl)c(Cl)c1Cl [PENTACHLOROPHENOL] | < 0.01 | > 10,000 PPM | –
4 | O=C(O)COc1ccc(Cl)cc1Cl [2,4-D] | < 0.1 | 1,000-10,000 PPM | –
5 | ClC=C(Cl)Cl [TRICHLOROETHYLENE] | < 0.01 | > 10,000 PPM | –
6 | Clc1ccc(Cl)c(Cl)c1 [1,2,4-TRICHLOROBENZENE] | < 1 | 100-1,000 PPM | –
7 | Clc1ccc(C(c2ccccc2Cl)C(Cl)(Cl)Cl)cc1 (centres unmarked) [O,P-DDT] | < 0.01 | > 10,000 PPM | –
8 | Oc1c(Cl)cc(Cl)c2ccccc12 [2,4-DICHLORO-1-NAPTHOL] | 2 | 50 PPM | –
9 | XYLENES | < 0.01 | > 10,000 PPM | –
10 | COC(=O)c1cc(Oc2ccc(Cl)cc2Cl)ccc1[N+](=O)[O-] [BIFENOX] | < 1 | 100-1,000 PPM | –
11 | c1ccccc1 [BENZENE] | < 0.01 | – | > 10,000 PPM
12 | c1ccc2ccccc2c1 [NAPHTHALENE] | < 0.01 | > 10,000 PPM | –
13 | Clc1c(Cl)c(Cl)c(Cl)c(Cl)c1Cl [HEXACHLOROBENZENE] | < 0.01 | > 10,000 PPM | –
14 | O=S(=O)(c1ccc(Cl)cc1)c1cc(Cl)c(Cl)cc1Cl [TETRADIFON] | < 10 | 10-100 PPM | –
15 | ClCCl [METHYLENE CHLORIDE] | < 0.01 | – | > 10,000 PPM
16 | Clc1cc(Cl)c(Cl)c(Cl)c1Cl [PENTACHLOROBENZENE] | < 0.01 | > 10,000 PPM | –
17 | CC(Oc1cc(Cl)c(Cl)cc1Cl)C(=O)O (centres unmarked) [SILVEX] | < 1 | 100-1,000 PPM | –
18 | Clc1cccc2ccccc12 [1-CHLORONAPHTHALENE] | < 0.01 | > 10,000 PPM | –
19 | Clc1cc(Cl)c(-c2ccc(-c3ccccc3)cc2)c(Cl)c1 [2,4,6-TRICHLOR-p-TERPHENYL] | < 0.01 | > 10,000 PPM | –
